Test results taken from US8232271B2 (priority 2008, dated 2012).

What was measured:
in vitro = details: human
[1] = biological target: T1, HCV polymerase (NS5B570n-Con1) (Hepatitis C virus genotype 1b, UniProt Q9WMX2); assay: HCV NS5B RNA polymerase activity assay; type: biochemical, HCV Con1 strain
T1 construct: contains a 21 amino acid deletion at the C-terminus relative to the full-length HCV polymerase; 6-histidine (N); made in house; host or cells: E. coli BL21(DE) pLysS, plasmid pET17b
Description: The enzymatic activity of HCV polymerase (NS5B570n-Con1) was measured as the incorporation of radiolabeled nucleotide monophosphates into acid insoluble RNA products. Unincorporated radiolabeled substrate was removed by filtration and scintillant was added to the washed and dried filter plate containing radiolabeled RNA product. The amount of RNA product generated by NS5B570-Con1 at the end of the reaction was directly proportional to the amount of light emitted by the scintillant.
The N-terminal 6-histidine tagged HCV polymerase, derived from HCV Con1 strain, genotype 1b (NS5B570n-Con1) contains a 21 amino acid deletion at the C-terminus relative to the full-length HCV polymerase and was purified from E. coli strain BL21(DE) pLysS. The construct, containing the coding sequence of HCV NS5B Con1 (GenBank accession number AJ242654) was inserted into the plasmid construct pET17b, downstream of a T7 promoter expression cassette and transformed into E. coli. A single colony was grown overnight as a starter culture and later used inoculate 10 L of LB media supplemented with 100 μg/mL ampicillin at 37° C. Protein expression was induced by the addition of 0.25 mM isopropyl-β-D-thiogalactopyranoside (IPTG) when optical density at […] of the culture was between 0.6 and 0.8 and cells were harvested after 16 to 18 h at 30° C. NS5B570n-Con1 was purified to homogeneity using a three-step protocol including subsequent column chromatography on Ni-NTA, SP-Sepharose HP and Superdex 75 resins.
Each 50 μl enzymatic reaction contained 20 nM RNA template derived from the complementary sequence of the Internal Ribosome Entry Site (cIRES), 20 nM NS5B570n-Con1 enzyme, 0.5 μCi of tritiated UTP (Perkin Elmer catalog no. TRK-412; specific activity: 30 to 60 Ci/mmol; stock solution concentration from 7.5×10^-5 M to 20.6×10^-6 M), 1 μM each ATP, CTP, and GTP, 40 mM Tris-HCl pH 8.0, 40 mM NaCl, 4 mM DTT (dithiothreitol), 4 mM MgCl2, and 5 μl of compound serial diluted in DMSO. Reaction mixtures were assembled in 96-well filter plates (cat #MADVN0B, Millipore Co.) and incubated for 2 h at 30° C. Reactions were stopped by addition of 10% final (v/v) trichloroacetic acid and incubated for 40 min at 4° C. Reactions were filtered, washed with 8 reaction volumes of 10% (v/v) trichloroacetic acetic acid, 4 reaction volumes of 70% (v/v) ethanol, air dried, and 25 μl of scintillant (Microscint 20, Perkin-Elmer) was added to each reaction well.
The amount of light emitted from the scintillant was converted to counts per minute (CPM) on a Topcount® plate reader (Perkin-Elmer, Energy Range: Low, Efficiency Mode: Normal, Count Time: 1 min, Background Subtract: none, Cross talk reduction: Off).
Data was analyzed in Excel® (Microsoft®) and ActivityBase® (Idbs®). The reaction in the absence of enzyme was used to determine the background signal, which was subtracted from the enzymatic reactions. Positive control reactions were performed in the absence of compound, from which the background corrected activity was set as 100% polymerase activity. All data was expressed as a percentage of the positive control. The compound concentration at which the enzyme-catalyzed rate of RNA synthesis was reduced by 50% (IC50) was calculated by fitting
[formula] equation (i) to the data. where “Y” corresponds to the relative enzyme activity (in %), “% Min” is the residual relative activity at saturating compound concentration, “% Max” is the relative maximum enzymatic activity, “X” corresponds to the compound concentration, and “S” is the Hill coefficient (or slope).

[2] = tested on: HCV replicon cells (2209-23); assay: HCV replicon assay (Renilla luciferase reporter); type: cell-based, HCV genotype 1b; details: Hepatitis C virus, 72 h; three days incubation
HCV = details: monotherapy; cited from earlier work

COc1cc(CNC(=O)c2ccc(O)cc2)c(-c2ccc[nH]c2=O)cc1C(C)(C)C [Compound I-38, N-[4-tert-Butyl-5-methoxy-2-(2-oxo-1,2-dihydro-pyridin-3-yl)-benzyl]-4-hydroxy-benzamide]
CC50 (in vitro): 92.9 µM | melting point: 205 to 210 °C | IC50 [1]: 0.016 µM | IC50 [2]: 0.31 µM

COc1cc(CNC(=O)c2cccc(NS(C)(=O)=O)c2)c(-c2ccc[nH]c2=O)cc1C(C)(C)C [Compound I-63]
CC50 (in vitro): 43.7 µM | melting point: 259 to 260 °C | IC50 [1]: 0.012 µM | IC50 [2]: 0.034 µM

COc1cc(CNC(=O)[C@H]2CC[C@H](NS(C)(=O)=O)C2)c(-c2ccc[nH]c2=O)cc1C(C)(C)C [Compound I-81, (1S,3S)-3-Methanesulfonylamino-cyclopentanecarboxylic acid 4-tert-butyl-5-methoxy-2-(2-oxo-1,2-dihydro-pyridin-3-yl)-benzylamide]
melting point: 158 to 160 °C | IC50 [1]: 0.022 µM | IC50 [2]: 0.238 µM

NC(=O)c1ncn([C@@H]2O[C@H](CO)[C@@H](O)[C@H]2O)n1 [ribavirin, 1-((2R,3R,4S,5R)-3,4-Dihydroxy-5-hydroxymethyl-tetrahydro-furan-2-yl)-1H-[1,2,4]triazole-3-carboxylic acid amide]
effect on serum levels of HCV-RNA (HCV): does not lower serum levels of HCV-RNA | patients with serum amino transferase levels reduced to normal (HCV): 40%

COc1cc(CN(c2ccccc2)S(C)(=O)=O)c(-c2ccc[nH]c2=O)cc1C(C)(C)C [Compound I-34]
CC50 (in vitro): 44.2 µM | melting point: 226 to 227 °C | IC50 [1]: 0.013 µM | IC50 [2]: 0.936 µM

COc1cc(C(=O)N2CCS(=O)(=O)CC2)c(-c2ccc[nH]c2=O)cc1C(C)(C)C [Compound I-51]
melting point: 252 to 254 °C | IC50 [1]: 0.552 µM

COc1cc(CNS(=O)(=O)Cc2ccccc2)c(-c2ccc[nH]c2=O)cc1C(C)(C)C [Compound I-20]
melting point: 249 to 250 °C | IC50 [1]: 0.211 µM

COCCN1CCN(C(=O)c2cc(OC)c(C(C)(C)C)cc2-c2ccc[nH]c2=O)CC1 [Compound I-67]
melting point: 179 to 181 °C | IC50 [1]: 3.69 µM

CCOC(=O)[C@H]1CCC(=O)N1Cc1cc(OC)c(C(C)(C)C)cc1-c1ccc[nH]c1=O [Compound I-70, (R)-1-[4-tert-Butyl-5-methoxy-2-(2-oxo-1,2-dihydro-pyridin-3-yl)-benzyl]-5-oxo-pyrrolidine-2-carboxylic acid ethyl ester]
melting point: 92 to 95 °C | IC50 [1]: 0.07 µM

COc1cc(CNC(=O)c2ccc(NS(C)(=O)=O)cc2)c(-c2ccc[nH]c2=O)cc1C(C)(C)C [Compound I-43, N-[4-tert-butyl-5-methoxy-2-(2-oxo-1,2-dihydro-pyridin-3-yl)-benzyl]-4-methanesulfonylamino-benzamide]
melting point: 175 to 180 °C | IC50 [1]: 0.05 µM

COc1cc(CN2C(=O)CC(C)(C)CC2=O)c(-c2ccc[nH]c2=O)cc1C(C)(C)C [Compound I-88]
melting point: > 300 °C | IC50 [1]: 0.052 µM

COc1cc(CCO)c(-c2ccc[nH]c2=O)cc1C(C)(C)C [Compound I-5, 3-[5-tert-Butyl-2-(2-hydroxy-ethyl)-4-methoxy-phenyl]-1H-pyridin-2-one]
melting point: 231.8 to 233.7 °C | IC50 [1]: 1.58 µM

COc1cc(CN2CCCS2(=O)=O)c(-c2ccc[nH]c2=O)cc1C(C)(C)C [Compound I-21, 3-[5-tert-Butyl-2-(1,1-dioxo-1λ^6-isothiazolidin-2-ylmethyl)-4-methoxy-phenyl]-1H-pyridin-2-one]
melting point: 109.4 to 126.9 °C | IC50 [1]: 0.017 µM | IC50 [2]: 0.168 µM

COc1cc(CN(CCOC(C)=O)S(C)(=O)=O)c(-c2ccc[nH]c2=O)cc1C(C)(C)C [Compound I-30, 2-{[4-tert-Butyl-5-methoxy-2-(2-oxo-1,2-dihydro-pyridin-3-yl)-benzyl]-methanesulfonyl-amino}-ethyl acetate]
melting point: 207 to 208 °C | IC50 [1]: 0.035 µM

COc1cc(CNS(=O)(=O)c2ccccc2Cl)c(-c2ccc[nH]c2=O)cc1C(C)(C)C [Compound I-87]
melting point: 231 to 232 °C | IC50 [1]: 0.358 µM
